± gives the expanded uncertainty stated by the source.
Assay: xn = mol fraction of the nth substance listed
Conditions: 101 kPa, Liquid; for mass density: Vibrating tube method; for speed of sound: Pulse-echo method

ClC(Cl)(Cl)Br [bromotrichloromethane] + BrCBr
Conditions	mass density, 303.15 K [kg/m3]	mass density, 308.15 K [kg/m3]	mass density, 313.15 K [kg/m3]	speed of sound, 308.15 K [m/s]	speed of sound, 313.15 K [m/s]
x1 = 0.0506	2429.69 ± 1.8	2416.74 ± 1.7	2403.73 ± 1.7	919.1 ± 1.2	906.4 ± 1.2
x1 = 0.0993	2398.59 ± 1.7	2385.75 ± 1.7	2372.87 ± 1.7	914.8 ± 1.2	902.2 ± 1.2
x1 = 0.1491	2367.61 ± 1.7	2354.94 ± 1.7	2342.21 ± 1.6	910.7 ± 1.2	898.1 ± 1.2
x1 = 0.1991	2338.13 ± 1.6	2325.48 ± 1.6	2312.93 ± 1.6	907.1 ± 1.2	894.4 ± 1.2
x1 = 0.2473	2310.8 ± 1.6	2298.33 ± 1.6	2285.84 ± 1.6	903.7 ± 1.2	891 ± 1.2
x1 = 0.2986	2282.77 ± 1.6	2270.45 ± 1.6	2258.08 ± 1.5	900.4 ± 1.2	887.7 ± 1.2
x1 = 0.3465	2257.58 ± 1.5	2245.37 ± 1.5	2233.11 ± 1.5	897.6 ± 1.2	884.8 ± 1.2
x1 = 0.3979	2231.57 ± 1.5	2219.48 ± 1.5	2207.34 ± 1.5	894.8 ± 1.2	882 ± 1.2
x1 = 0.4468	2207.52 ± 1.5	2195.5 ± 1.4	2183.5 ± 1.4	892.4 ± 1.2	879.5 ± 1.2
x1 = 0.4967	2184.02 ± 1.4	2172.16 ± 1.4	2160.25 ± 1.4	890.1 ± 1.2	877.1 ± 1.2
x1 = 0.5462	2161.9 ± 1.4	2150.12 ± 1.4	2138.31 ± 1.4	888 ± 1.2	875.1 ± 1.2
x1 = 0.5975	2139.5 ± 1.4	2128 ± 1.4	2116.3 ± 1.4	886.1 ± 1.2	873.1 ± 1.2
x1 = 0.6479	2118.46 ± 1.4	2106.9 ± 1.3	2095.25 ± 1.3	884.4 ± 1.2	871.4 ± 1.2
x1 = 0.6947	2099.49 ± 1.3	2087.96 ± 1.3	2076.47 ± 1.3	882.8 ± 1.2	869.9 ± 1.2
x1 = 0.7469	2079.21 ± 1.3	2067.83 ± 1.3	2056.41 ± 1.3	881.4 ± 1.2	868.4 ± 1.2
x1 = 0.7959	2060.79 ± 1.3	2049.47 ± 1.3	2038.17 ± 1.3	880.2 ± 1.2	867.1 ± 1.2
x1 = 0.8494	2041.21 ± 1.3	2030.02 ± 1.2	2018.79 ± 1.2	879 ± 1.2	865.9 ± 1.2
x1 = 0.898	2024.04 ± 1.2	2012.93 ± 1.2	2001.78 ± 1.2	878.1 ± 1.2	865 ± 1.2
x1 = 0.9469	2007.69 ± 1.2	1996.65 ± 1.2	1985.57 ± 1.2	877.3 ± 1.2	864.1 ± 1.2
x1 = 1	1991.2 ± 1.2	1980.24 ± 1.2	1969.25 ± 1.2	876.8 ± 1.2	863.6 ± 1.2

From the NIST ThermoML archive (doi:10.1021/je300775u)
